For this experiment, the target named is T1, human recombinant GST-PAK1-KD protein (Homo sapiens, UniProt Q13153).
T1 construct: residues #249-545 of human PAK1, UniProtKP/Swiss Q13153; His6 (N); made in house; host or cells: Sf9 insect cells, pAcGP67 baculovirus expression vector
In words: GST-PAK1-KD (kinase domain) biochemical assay, microfluidic mobility shift. Here is the method: Activity of human recombinant GST-PAK1-KD protein was assessed in vitro assay by observing the phosphorylation of a fluorogenic peptide substrate.
The peptide substrate is a consensus sequence based on various PAK1 substrates reported in the scientific literature. […] Incubations were carried out at 22° C. in MatriCal MP101 384-well Metriplates™. […] Following the 30-minute incubation, the assay mixtures were quenched by the addition of 3 μL of 250 mM EDTA, and the substrate and phosphorylated product were separated by capillary electrophoresis and detected using LabChip® Caliper 3000 (Caliper Life Sciences).

Where [1] appears, read: Table I, PAK1 Ki class, read-out: Ki.

Where two headings read alike, the source gives them in different places. Bounds are passed on as bounds.

T1 sequence (Q13153 249-545): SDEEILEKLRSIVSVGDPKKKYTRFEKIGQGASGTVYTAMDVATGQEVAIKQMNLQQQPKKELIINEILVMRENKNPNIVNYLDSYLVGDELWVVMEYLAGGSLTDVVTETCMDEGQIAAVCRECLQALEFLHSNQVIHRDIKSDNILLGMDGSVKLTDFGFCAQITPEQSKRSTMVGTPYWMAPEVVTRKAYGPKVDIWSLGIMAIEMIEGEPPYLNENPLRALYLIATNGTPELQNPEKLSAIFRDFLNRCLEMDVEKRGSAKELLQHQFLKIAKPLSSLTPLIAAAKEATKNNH

By Ki is commonly meant the dissociation constant of the complex between target and ligand, obtained from inhibition or displacement. `C[C@H](Nc1nccc(Nc2cc(C3CC3(F)F)[nH]n2)n1)c1ccc2[nH]ccc2c1` (mixture of isomers) [I-66, N^2—((S)-1-(1H-indol-5-yl)ethyl)-N^4-(5-(2,2-difluorocyclopropyl)-1H-pyrazol-3-yl)pyrimidine-2,4-diamine]: the Ki under setting [1] lay in the range of 50 to 250 nM.
As for `c1ccc([C@@H]2C[C@H]2c2cc(Nc3ccnc(NCc4ccc5[nH]cnc5c4)n3)n[nH]2)cc1` (racemic) [I-27, N^2-(1H-Benzimidazol-5-ylmethyl)-N^4-[5-[(trans)-2-phenylcyclopropyl]-1H-pyrazol-3-yl]pyrimidine-2,4-diamine], the Ki under setting [1] was 50 to 250 nM.
For `c1ccc([C@@H]2C[C@H]2c2cc(Nc3ccnc(NCc4cccc5[nH]ccc45)n3)n[nH]2)cc1` (racemic) [I-57, N^2-((1H-indol-4-yl)methyl)-N^4-(5-((trans)-2-phenylcyclopropyl)-1H-pyrazol-3-yl)pyrimidine-2,4-diamine], the Ki under setting [1] is 250 to 1000 nM.
For the molecule `F[C@@H]1C[C@H]1c1cc(Nc2ccnc(NCc3cccc4[nH]ccc34)n2)n[nH]1` (racemic) [I-80, trans-N^2-((1H-indol-4-yl)methyl)-N^4-(5-(2-fluorocyclopropyl)-1H-pyrazol-3-yl)pyrimidine-2,4-diamine], the Ki under setting [1] was under 50 nM.
Same read-out and setting: the result for `F[C@@H]1C[C@@H]1c1cc(Nc2ccnc(NCc3cccc4[nH]ccc34)n2)n[nH]1` (racemic) [I-81] reads 50 to 250 nM.
The same measure, in the same setting: the result for `Fc1ccccc1[C@H]1C[C@@H]1c1cc(Nc2ccnc(NCc3cccc4[nH]ccc34)n2)n[nH]1` (racemic) [I-118, N^2-((1H-indol-4-yl)methyl)-N^4-(5-(trans-2-(2-fluorophenyl)cyclopropyl)-1H-pyrazol-3-yl)pyrimidine-2,4-diamine] reads 250 to 1000 nM; that for `C[C@H](Nc1nccc(Nc2cc([C@@H]3C[C@@H]3F)[nH]n2)n1)c1ccc2[nH]cnc2c1` (single isomer, unassigned) [I-67], under 50 nM; that for `C[C@H](Nc1nccc(Nc2cc([C@H]3C[C@@H]3c3ccccc3F)[nH]n2)n1)c1ccc2[nH]cnc2c1` (stereo in doubt) [I-23, N^2—((S)-1-(1H-benzo[d]imidazol-5-yl)ethyl)-N^4-(5-((trans)-2-(2-fluorophenyl)cyclopropyl)-1H-pyrazol-3-yl)pyrimidine-2,4-diamine], 50 to 250 nM.
Still for that read-out and setting: in the case of `C[C@H](Nc1nccc(Nc2cc([C@H]3C[C@@H]3c3ccccc3)[nH]n2)n1)c1ccc2[nH]cnc2c1` (stereo in doubt) [I-24, N^2—((S)-1-(1H-benzo[d]imidazol-5-yl)ethyl)-N^4-(5-((trans)-2-phenylcyclopropyl)-1H-pyrazol-3-yl)pyrimidine-2,4-diamine] it was 50 to 250 nM; in that of `C[C@H](Nc1nccc(Nc2cc(C3CCC3)[nH]n2)n1)c1ccc2[nH]cnc2c1` [I-1, (S)—N^2-(1-(1H-benzo[d]imidazol-5-yl)ethyl)-N^4-(5-cyclobutyl-1H-pyrazol-3-yl)pyrimidine-2,4-diamine], under 50 nM.
As to `C[C@H](Nc1nccc(Nc2cc(C3CCCC3)[nH]n2)n1)c1ccc2[nH]cnc2c1` [I-2, (S)—N^2-(1-(1H-benzo[d]imidazol-5-yl)ethyl)-N^4-(5-cyclopentyl-1H-pyrazol-3-yl)pyrimidine-2,4-diamine], the Ki under setting [1] is under 50 nM.
As to `Clc1c(CNc2nccc(Nc3cc(C4CC4)[nH]n3)n2)ccc2[nH]cnc12` [I-3, N^2-[(4-Chloro-1H-benzimidazol-5-yl)methyl]-N^4-(5-cyclopropyl-1H-pyrazol-3-yl)pyrimidine-2,4-diamine], the Ki (Ki, Table I, PAK1 Ki class) is under 50 nM.
As for `Cc1cc(Nc2cc(C3CC3)[nH]n2)nc(N[C@@H](C)c2ccc3[nH]cnc3c2)n1` [I-4, (S)—N^2-(1-(1H-benzo[d]imidazol-5-yl)ethyl)-N^4-(5-cyclopropyl-1H-pyrazol-3-yl)-6-methylpyrimidine-2,4-diamine], the Ki under setting [1] lay in the range of 50 to 250 nM.
For `C[C@H](Nc1nccc(Nc2cc(C3CC3)[nH]n2)n1)c1ccc2[nH]cnc2c1` [I-5, N^2-[(1S)-1-(1H-Benzimidazol-5-yl)ethyl]-N^4-(5-cyclopropyl-1H-pyrazol-3-yl)pyrimidine-2,4-diamine], the Ki (Ki, Table I, PAK1 Ki class) was under 50 nM.
As for `CC[C@H](Nc1nccc(Nc2cc(C3CC3)[nH]n2)n1)c1ccc2[nH]cnc2c1` [I-6, N^2-[(1S)-1-(1H-benzimidazol-5-yl)propyl]-N^4-(5-cyclopropyl-1H-pyrazol-3-yl)pyrimidine-2,4-diamine], under setting [1], the Ki is under 50 nM.
Still for that read-out and setting: the result for `C[C@@H](c1ccc2[nH]cnc2c1)N(C)c1nccc(Nc2cc(C3CC3)[nH]n2)n1` [I-9, (S)—N^2-(1-(1H-benzo[d]imidazol-5-yl)ethyl)-N^4-(5-cyclopropyl-1H-pyrazol-3-yl)-N^2-methylpyrimidine-2,4-diamine] reads under 50 nM.
The same measure, in the same setting: in the case of `Cc1cc(Nc2cc(C3CC3)[nH]n2)nc(NCc2ccc3[nH]cnc3c2)n1` [I-10, N^2-((1H-benzo[d]imidazol-5-yl)methyl)-N^4-(5-cyclopropyl-1H-pyrazol-3-yl)-6-methylpyrimidine-2,4-diamine] it was under 50 nM.
In the case of `CN(Cc1ccc2[nH]cnc2c1)c1nccc(Nc2cc(C3CC3)[nH]n2)n1` [I-12, N^2-((1H-Benzo[d]imidazol-5-yl)methyl)-N^4-(5-cyclopropyl-1H-pyrazol-3-yl)-N^2-methylpyrimidine-2,4-diamine], the Ki under setting [1] is under 50 nM.
Take `c1cc(Nc2cc(C3CC3)[nH]n2)nc(NCc2ccc3[nH]cnc3c2)n1` [I-13, N^2-((1H-Benzo[d]imidazol-5-yl)methyl)-N^4-(5-cyclopropyl-1H-pyrazol-3-yl)pyrimidine-2,4-diamine]: the Ki is under 50 nM.
With `C[C@H](Nc1nccc(Nc2cc(C3CCOC3)[nH]n2)n1)c1ccc2[nH]cnc2c1` (stereo partly drawn) [I-14, N^2—((S)-1-(1H-benzo[d]imidazol-5-yl)ethyl)-N^4-(5-(tetrahydrofuran-3-yl)-1H-pyrazol-3-yl)pyrimidine-2,4-diamine], the Ki under setting [1] is under 50 nM.
As to `c1cc(Nc2cc(C3CC3)[nH]n2)nc(NCc2ccc3[nH]ccc3c2)n1` [I-15, N^2-((1H-Indol-5-yl)methyl)-N^4-(5-cyclopropyl-1H-pyrazol-3-yl)pyrimidine-2,4-diamine], the Ki was under 50 nM.
Regarding `Cc1c(CNc2nccc(Nc3cc(C4CC4)[nH]n3)n2)ccc2[nH]cnc12` [I-16, N^4-(5-Cyclopropyl-1H-pyrazol-3-yl)-N^2-((4-methyl-1H-benzo[d]imidazol-5-yl)methyl)pyrimidine-2,4-diamine], under setting [1], the Ki fell in the range of 50 to 250 nM.
Same read-out and setting: in the case of `CC(C)(Nc1nccc(Nc2cc(C3CC3)[nH]n2)n1)c1ccc2[nH]cnc2c1` [I-17, N^2-(2-(1H-Benzo[d]imidazol-5-yl)propan-2-yl)-N^4-(5-cyclopropyl-1H-pyrazol-3-yl)pyrimidine-2,4-diamine] it was 50 to 250 nM.
On to `C[C@H](Nc1nc(Nc2cc(C3CC3)[nH]n2)cc(C(F)(F)F)n1)c1ccc2[nH]ccc2c1` [I-18, (S)—N^2-(1-(1H-indol-5-yl)ethyl)-N^4-(5-cyclopropyl-1H-pyrazol-3-yl)-6-(trifluoromethyl) pyrimidine-2,4-diamine], for which the Ki under setting [1] lay in the range of 50 to 250 nM.
Same read-out and setting: the result for `Cc1cc(Nc2cc(C3CC3)[nH]n2)nc(NCc2ccc3[nH]ccc3c2Cl)n1` [I-19, N^2-((4-chloro-1H-indol-5-yl)methyl)-N^4-(5-cyclopropyl-1H-pyrazol-3-yl)-6-methylpyrimidine-2,4-diamine] reads 50 to 250 nM; that for `Clc1c(CNc2nccc(Nc3cc(C4CC4)[nH]n3)n2)ccc2[nH]ccc12` [I-20, N^2-((4-chloro-1H-indol-5-yl)methyl)-N^4-(5-cyclopropyl-1H-pyrazol-3-yl)pyrimidine-2,4-diamine], 50 to 250 nM.
As for `C[C@H](Nc1nccc(Nc2cc(OCc3ccccc3)[nH]n2)n1)c1ccc2[nH]cnc2c1` [I-21, N^2-[(1S)-1-(1H-Benzimidazol-5-yl)ethyl]-N^4-(5-benzyloxy-1H-pyrazol-3-yl)pyrimidine-2,4-diamine], under setting [1], the Ki is 50 to 250 nM.
`C[C@H](Nc1nccc(Nc2cc(C3CC3)[nH]n2)n1)c1ccc2[nH]ccc2c1Cl` [I-22, (S)—N^2-(1-(4-chloro-1H-indol-5-yl)ethyl)-N^4-(5-cyclopropyl-1H-pyrazol-3-yl)pyrimidine-2,4-diamine]: the Ki under setting [1] fell in the range of 50 to 250 nM.
Still for that read-out and setting: the result for `Cc1c[nH]c2ccc(CNc3nccc(Nc4cc(C5CC5)[nH]n4)n3)cc12` [I-25, N^4-(5-cyclopropyl-1H-pyrazol-3-yl)-N^2-((3-methyl-1H-indol-5-yl)methyl)pyrimidine-2,4-diamine] reads 50 to 250 nM; that for `Cc1cc(CNc2nccc(Nc3cc(C4CC4)[nH]n3)n2)cc2nc[nH]c12` [I-26, N^4-(5-Cyclopropyl-1H-pyrazol-3-yl)-N^2-((7-methyl-1H-benzo[d]imidazol-5-yl)methyl)-pyrimidine-2,4-diamine], 50 to 250 nM; that for `Fc1cc2[nH]cnc2cc1CNc1nccc(Nc2cc(C3CC3)[nH]n2)n1` [I-28, N^4-(5-Cyclopropyl-1H-pyrazol-3-yl)-N^2-((6-fluoro-1H-benzo[d]imidazol-5-yl)methyl)pyrimidine-2,4-diamine], 50 to 250 nM.
In the case of `Fc1c(CNc2nccc(Nc3cc(C4CC4)[nH]n3)n2)ccc2[nH]cnc12` [I-29, N^4-(5-Cyclopropyl-1H-pyrazol-3-yl)-N^2-[(4-fluoro-1H-benzimidazol-5-yl)methyl]pyrimidine-2,4-diamine], the Ki lay within 250 to 1000 nM.
On to `Cc1cc2[nH]cnc2cc1CNc1nccc(Nc2cc(C3CC3)[nH]n2)n1` [I-30, N^4-(5-Cyclopropyl-1H-pyrazol-3-yl)-N^2-[(6-methyl-1H-benzimidazol-5-yl)methyl]pyrimidine-2,4-diamine], for which, under setting [1], the Ki lay within 250 to 1000 nM.
As to `Cc1cnc(N[C@@H](C)c2ccc3[nH]ccc3c2)nc1Nc1cc(C2CC2)[nH]n1` [I-31, (S)—N^2-(1-(1H-indol-5-yl)ethyl)-N^4-(5-cyclopropyl-1H-pyrazol-3-yl)-5-methylpyrimidine-2,4-diamine], under setting [1], the Ki is 250 to 1000 nM.

Source of the values: US8637537B2, “Serine/threonine kinase inhibitors” (Genentech, Inc., priority 2011, dated 2014).
